{
  "source": "patent US20040258778A1",
  "about": "“Lactation cessation and breast engorgement compositions and method of use” (priority 2003, published 2004)",
  "origin": "cited, not measured here",
  "tested_on": "lactating women",
  "data": [
    {"smiles": "CC(C)C[C@H]1C(=O)N2CCC[C@H]2[C@]2(O)O[C@](NC(=O)[C@@H]3C=C4c5cccc6[nH]c(Br)c(c56)C[C@H]4N(C)C3)(C(C)C)C(=O)N12", "note": "[bromocriptine]", "values": [
      {"measurement": "rebound engorgement, share of the time", "setting": "after a two-week course of treatment ends, according to the official labeling", "result": "up to 40%"},
      {"measurement": "very serious side effects reported", "setting": "use to suppress lactation (Iffy, 1998)", "result": "strokes, seizures (convulsions), intracranial bleeding, cerebral edema, and heart attacks"}
    ]}
  ]
}
